Reference: patent US7084166B2, “Bis-heterocyclic compounds with antitumour and chemosensitising activity” (Sigma-Tau Industrie Farmaceutichee Riunite S.p.A., priority 2000, dated 2006)
Like-named read-outs stand apart in the source and are kept apart here. Each block holds one compound with its values, some of them ahead of it.

Tests used:
Format in all cases: cell-based
[1] = test system: HL60 cells (acute promyelocytic leukaemia); assay: Cell differentiation by reduction of nitroblue tetrazolium (NBT), with suboptimal ATRA; conditions: combined with suboptimal doses of ATRA; for AC50: Homo sapiens, HL-60, 72 h, 3 days, read-out: AC50 (concentration at which the tested compound induces 50% of cell differentiation)
Procedure: (§1) The second line used was the HL60 cell line which responds to ATRA (but is less sensitive than the NB4 cell line).
(§2) The HL60 and NB4 cells were seeded at a density of 150,000 cells/ml in RPMI 1640 medium containing 10% foetal calf serum, and were treated with the tested compounds in the presence and absence of suboptimal doses of ATRA (5–10 nM for NB4 and 0.5 μM for HL60, respectively) in the dark, and returned to the incubator for 3 days without ever replacing the culture medium.
(§3) To analyse the differentiative effect of the tested compounds vs ATRA, on the third day of treatment 500,000 viable cells were harvested from each sample, centrifuged for 10 minutes at 1.000 rpm and resuspended in 1 ml of RPMI 1640 medium containing 10% foetal calf serum, 1 mg/ml of nitroblue tetrazolium (NBT) and 100 ng of PMA (phorbol 12-myristate 13-acetate).
(§4) The cells thus resuspended were incubated in the dark at 37° C. for 60 minutes.
(§5) At the end of the incubation, the cell suspension was centrifuged for 10 minutes at 10,000 rpm; the pellet obtained was then resuspended in 1 ml of PBS containing 10% Triton X-100 and sonicated to lysis.
(§6) Spectrophotometric readings of the samples were then taken at a wavelength of 540 nm: samples containing differentiated cells shifted towards a violet colour, whereas control samples and/or samples with non-differentiated cells were colourless or, at any rate, much less intensely coloured.
(§7) The AC50 (Activating Concentration) is the concentration at which the tested compound induces 50% of cell differentiation.
(§8) Fold Induction is the increase in the differentiation value of the cell sample treated with the tested compound +ATRA vs the value of the cell sample treated with ATRA alone. This value provides an indication of the ability (potency) of the tested compound to enhance ATRA induced cell differentiation.

[2] = test system: NB4 cells (acute promyelocytic leukaemia); assay: as above; conditions: for AC50 / fold induction (differentiation, compound + ATRA vs ATRA alone): combined with suboptimal doses of ATRA, NBT; for AC50: 3 days, read-out: AC50 (concentration at which the tested compound induces 50% of cell differentiation)
Procedure: The first line used was the NB4 cell line, bearing the t(15;17) chromosomal translocation which generates the fusion protein PML/RARα. This line is very sensitive to the differentiative action of pharmacological doses of ATRA (10^−7–10^−6 M).
as §2, §3, §4, §5, §6, §7, §8

[3] = test system: NB4 cells (acute promyelocytic leukaemia); assay: Flow cytofluorimetric analysis of cell cycle; set-up: APOPTOSIS: unit not given here; conditions: for effect of the compound alone on cell cycle and apoptosis (in words): compound alone (ST 1346: high doses)
Procedure: The first line used was the NB4 cell line, bearing the t(15;17) chromosomal translocation which generates the fusion protein PML/RARα.
(§9) To assess the effect of the tested compounds on the various phases of the cell cycle, on the third day of treatment 500,000 cells were harvested, centrifuged at 1,000 rpm for 10 minutes, washed twice in PBS w/o (PBS without calcium and magnesium) and fixed in a solution of 50% PBS w/o+50% methanol/acetone (1:4 v/v) for at least 1 hour; the cells were then centrifuged as described, washed in PBS w/o and centrifuged again.
(§10) 200 μl of propidium iodide 100 μg/ml and 200 μl of RNase 150 kU/mg were then added to the cell pellet.
(§11) After a 30-min incubation in the dark at room temperature, the samples were analysed by flow cytofluirometry.

[4] = test system: HL60 cells (acute promyelocytic leukaemia); assay: Flow cytofluorimetric analysis of cell cycle; conditions: day 3
Procedure: as §1, §2, §9, §10, §11

[5] = compound 1 μM + ATRA 0.01 μM, day 3
[6] = compound 1 μM + ATRA 0.01 μM, day 3, listed as ST1346
[7] = compound 5 μM + ATRA 0.01 μM, day 3
[8] = compound 5 μM + ATRA 0.01 μM, day 3, listed as ST1346
[9] = compound 10 μM + ATRA 0.01 μM, day 3
[10] = compound 10 μM + ATRA 0.01 μM, day 3, listed as ST1346
[11] = compound 50 μM + ATRA 0.01 μM, day 3
[12] = compound 50 μM + ATRA 0.01 μM, day 3, listed as ST1346

- fold induction (differentiation, compound + ATRA vs ATRA alone) [1]: 2.7
- fold induction (differentiation, compound + ATRA vs ATRA alone) [2]: 3.0
Structure (SMILES): OCCCCC(c1c[nH]c2ccccc12)c1c[nH]c2ccccc12 [ST 1346, 5-hydroxy-1,1-di-(indol-3-yl)-pentane]
- AC50 [1]: 14.8 ± 1.6 µM
- AC50 ([2]; Homo sapiens, NB-4, 72 h): 1.5 ± 0.5 µM
- dose reaching maximal effect in sensitising ATRA-induced terminal differentiation ([2]; doses 1, 5, 10, 50 μM with suboptimal ATRA): 10 µM
- APOPTOSIS [3, 5]: 17.5
- G0/G1 [3, 5]: 57.1
- G2/M [3, 5]: 13.9
- S [3, 5]: 29.0
- APOPTOSIS [3, 6]: 14
- G0/G1 [3, 6]: 61.5
- G2/M [3, 6]: 12.9
- S [3, 6]: 25.6
- APOPTOSIS [3, 7]: 17.0
- G0/G1 [3, 7]: 58.4
- G2/M [3, 7]: 13.9
- S [3, 7]: 27.7
- APOPTOSIS [3, 8]: 13.5
- G0/G1 [3, 8]: 58.0
- G2/M [3, 8]: 13.5
- S [3, 8]: 28.5
- APOPTOSIS [3, 9]: 15.0
- G0/G1 [3, 9]: 58.4
- G2/M [3, 9]: 13.0
- S [3, 9]: 28.6
- APOPTOSIS [3, 10]: 13
- G0/G1 [3, 10]: 60.0
- G2/M [3, 10]: 12.6
- S [3, 10]: 27.4
- APOPTOSIS [3, 11]: 10.0
- G0/G1 [3, 11]: 82.2
- G2/M [3, 11]: 8.0
- S [3, 11]: 9.8
- APOPTOSIS [3, 12]: 17
- G0/G1 [3, 12]: 84.2
- G2/M [3, 12]: 6.3
- S [3, 12]: 9.5
- APOPTOSIS ([3]; compound alone 1 μM, day 3): 23
- G0/G1 ([3]; compound alone 1 μM, day 3): 46.9
- G2/M ([3]; compound alone 1 μM, day 3): 15.7
- S ([3]; compound alone 1 μM, day 3): 37.4
- APOPTOSIS ([3]; compound alone 5 μM, day 3): 24
- G0/G1 ([3]; compound alone 5 μM, day 3): 47.4
- G2/M ([3]; compound alone 5 μM, day 3): 13.8
- S ([3]; compound alone 5 μM, day 3): 38.8
- APOPTOSIS ([3]; compound alone 10 μM, day 3): 23
- G0/G1 ([3]; compound alone 10 μM, day 3): 50.0
- G2/M ([3]; compound alone 10 μM, day 3): 14.7
- S ([3]; compound alone 10 μM, day 3): 35.3
- APOPTOSIS ([3]; compound alone 50 μM, day 3): 46
- G0/G1 ([3]; compound alone 50 μM, day 3): 59.4
- G2/M ([3]; compound alone 50 μM, day 3): 7.3
- S ([3]; compound alone 50 μM, day 3): 33.3
- effect of the compound alone on cell cycle and apoptosis (in words) [3]: induce growth arrest (in the G0/G1 phase of the cell cycle) and apoptosis

- fold induction (differentiation, compound + ATRA vs ATRA alone) [2]: 2.5
Structure (SMILES): OCCCC(c1c[nH]c2ccccc12)c1c[nH]c2ccccc12 [ST 1707, 1,1-di(indol-3-yl)-4-hydroxy-butane]
- AC50 ([2]; Homo sapiens, NB-4, 72 h): 8.3 ± 0.05 µM
- APOPTOSIS [3, 5]: 17.0
- G0/G1 [3, 5]: 65.4
- G2/M [3, 5]: 11.8
- S [3, 5]: 22.8
- APOPTOSIS [3, 7]: 14.0
- G0/G1 [3, 7]: 69.8
- G2/M [3, 7]: 11.3
- S [3, 7]: 18.9
- APOPTOSIS [3, 9]: 13.0
- G0/G1 [3, 9]: 70.4
- G2/M [3, 9]: 11.5
- S [3, 9]: 18.1
- APOPTOSIS [3, 11]: 11.5
- G0/G1 [3, 11]: 80.6
- G2/M [3, 11]: 9.0
- S [3, 11]: 10.4
- APOPTOSIS ([3]; compound alone 1 μM, day 3): 17.0
- G0/G1 ([3]; compound alone 1 μM, day 3): 51.7
- G2/M ([3]; compound alone 1 μM, day 3): 10.1
- S ([3]; compound alone 1 μM, day 3): 38.2
- APOPTOSIS ([3]; compound alone 5 μM, day 3): 19.5
- G0/G1 ([3]; compound alone 5 μM, day 3): 52.5
- G2/M ([3]; compound alone 5 μM, day 3): 11.1
- S ([3]; compound alone 5 μM, day 3): 36.4
- APOPTOSIS ([3]; compound alone 10 μM, day 3): 17.5
- G0/G1 ([3]; compound alone 10 μM, day 3): 52.2
- G2/M ([3]; compound alone 10 μM, day 3): 10.8
- S ([3]; compound alone 10 μM, day 3): 37.0
- APOPTOSIS ([3]; compound alone 50 μM, day 3): 17.0
- G0/G1 ([3]; compound alone 50 μM, day 3): 52.0
- G2/M ([3]; compound alone 50 μM, day 3): 12.0
- S ([3]; compound alone 50 μM, day 3): 36.0
- effect of the compound alone on cell cycle and apoptosis (in words) [3]: does not induce apoptosis

Structure (SMILES): O=C(O)CCC(c1c[nH]c2ccccc12)c1c[nH]c2ccccc12 [ST 1961, 4,4-di-(1H-indolyl-)butanoic acid]
- AC50 [2]: 6.6 ± 2 µM
- fold induction (differentiation, compound + ATRA vs ATRA alone) [2]: 1.4
- APOPTOSIS ([3]; compound alone 1 μM, day 3): 18.5
- G0/G1 ([3]; compound alone 1 μM, day 3): 47.5
- G2/M ([3]; compound alone 1 μM, day 3): 15.6
- S ([3]; compound alone 1 μM, day 3): 36.9
- APOPTOSIS ([3]; compound alone 5 μM, day 3): 24.0
- G0/G1 ([3]; compound alone 5 μM, day 3): 49.7
- G2/M ([3]; compound alone 5 μM, day 3): 13.0
- S ([3]; compound alone 5 μM, day 3): 37.3
- APOPTOSIS ([3]; compound alone 10 μM, day 3): 24.0
- G0/G1 ([3]; compound alone 10 μM, day 3): 48.4
- G2/M ([3]; compound alone 10 μM, day 3): 14.1
- S ([3]; compound alone 10 μM, day 3): 37.5
- APOPTOSIS ([3]; compound alone 50 μM, day 3): 24.0
- G0/G1 ([3]; compound alone 50 μM, day 3): 56.3
- G2/M ([3]; compound alone 50 μM, day 3): 14.0
- S ([3]; compound alone 50 μM, day 3): 29.7

- fold induction (differentiation, compound + ATRA vs ATRA alone) [1]: 1.6
- fold induction (differentiation, compound + ATRA vs ATRA alone) [2]: 1.8
Structure (SMILES): Cn1cc(C(CCCCO)c2cn(C)c3ccccc23)c2ccccc21 [ST 1974, 5,5-bis-(1-methyl-1H-indol-3-yl)-1 Pentanol]
- AC50 [1]: 9.5 ± 2.6 µM
- G0/G1 ([4]; compound 1 μM + ATRA 0.5 μM): 62.0
- G2/M ([4]; compound 1 μM + ATRA 0.5 μM): 11.7
- S ([4]; compound 1 μM + ATRA 0.5 μM): 26.3
- G0/G1 ([4]; compound 5 μM + ATRA 0.5 μM): 63.8
- G2/M ([4]; compound 5 μM + ATRA 0.5 μM): 10.5
- S ([4]; compound 5 μM + ATRA 0.5 μM): 25.7
- G0/G1 ([4]; compound 10 μM + ATRA 0.5 μM): 65.4
- G2/M ([4]; compound 10 μM + ATRA 0.5 μM): 10.5
- S ([4]; compound 10 μM + ATRA 0.5 μM): 24.1
- G0/G1 ([4]; compound 50 μM + ATRA 0.5 μM): 81.8
- G2/M ([4]; compound 50 μM + ATRA 0.5 μM): 10.6
- S ([4]; compound 50 μM + ATRA 0.5 μM): 7.6
- G0/G1 ([4]; compound alone 1 μM): 58.9
- G2/M ([4]; compound alone 1 μM): 11.1
- S ([4]; compound alone 1 μM): 30
- G0/G1 ([4]; compound alone 5 μM): 59.3
- G2/M ([4]; compound alone 5 μM): 11.4
- S ([4]; compound alone 5 μM): 29.3
- G0/G1 ([4]; compound alone 10 μM): 57.8
- G2/M ([4]; compound alone 10 μM): 12.2
- S ([4]; compound alone 10 μM): 30
- G0/G1 ([4]; compound alone 50 μM): 67.7
- G2/M ([4]; compound alone 50 μM): 12.3
- S ([4]; compound alone 50 μM): 20
- AC50 ([2]; Homo sapiens, NB-4, 72 h): 7.8 ± 2.6 µM
